Source: PMC7600351 (Pharmaceutics, 2020)
Read-outs that look alike come from different tables or passages of the source. One block for each compound: values may come before it.

Assays:
[1] = molecular target: T1, OATP1B1 (Homo sapiens, UniProt Q9Y6L6); experiment: Flow cytometric OATP1B1 inhibition assay (8-FcA uptake, HEK-OATP1B1); format: cell-based
T1 construct: expressed in transfected cells; host or cells: HEK293 (HEK-OATP1B1)
Method: (§1) As cell models for human OATP1B1 and OATP1B3, HEK293, a human embryonic kidney cell line, stably transfected with OATP1B1 (HEK-OATP1B1), OATP1B3 (HEK-OATP1B3), or the empty control vector (HEK293-VC G418) were used. Cells were cultured under standard cell culture conditions with DMEM supplemented with 10% FCS, 2 mM glutamine, 100 U/mL penicillin, 100 µg/mL streptomycin sulphate, and 800 µg/mL G418. Inhibition of the OATPs was quantified by flow cytometry assessing the uptake of 8-FcA into HEK293 cells over-expressing the respective transporter after 10 min incubation and normalised to the control cell line as described previously. Intracellular fluorescence was quantified in a MACSQuant 10 Analyzer (Milteny, Bergisch-Gladbach, Germany) with the 488 nm laser for excitation and the 525 nm bandfilter for emission (FITC channel). Excluding debris, living cells were gated in the forward/sideward scatter by using the unstained sample. For each concentration (0.1–100 µM), 30,000 cells were measured and each experiment was performed in triplicate. Rifampicin (20 µM), a well-known inhibitor of OATP1B1 and OATP1B3, was used as a positive control.

[2] = molecular target: T2, OATP1B3 (Homo sapiens, UniProt Q9NPD5); experiment: Flow cytometric OATP1B3 inhibition assay (8-FcA uptake, HEK-OATP1B3); format: cell-based
T2 construct: expressed in transfected cells; host or cells: HEK293 (HEK-OATP1B3)
T2 sequence (Q9NPD5 whole entry): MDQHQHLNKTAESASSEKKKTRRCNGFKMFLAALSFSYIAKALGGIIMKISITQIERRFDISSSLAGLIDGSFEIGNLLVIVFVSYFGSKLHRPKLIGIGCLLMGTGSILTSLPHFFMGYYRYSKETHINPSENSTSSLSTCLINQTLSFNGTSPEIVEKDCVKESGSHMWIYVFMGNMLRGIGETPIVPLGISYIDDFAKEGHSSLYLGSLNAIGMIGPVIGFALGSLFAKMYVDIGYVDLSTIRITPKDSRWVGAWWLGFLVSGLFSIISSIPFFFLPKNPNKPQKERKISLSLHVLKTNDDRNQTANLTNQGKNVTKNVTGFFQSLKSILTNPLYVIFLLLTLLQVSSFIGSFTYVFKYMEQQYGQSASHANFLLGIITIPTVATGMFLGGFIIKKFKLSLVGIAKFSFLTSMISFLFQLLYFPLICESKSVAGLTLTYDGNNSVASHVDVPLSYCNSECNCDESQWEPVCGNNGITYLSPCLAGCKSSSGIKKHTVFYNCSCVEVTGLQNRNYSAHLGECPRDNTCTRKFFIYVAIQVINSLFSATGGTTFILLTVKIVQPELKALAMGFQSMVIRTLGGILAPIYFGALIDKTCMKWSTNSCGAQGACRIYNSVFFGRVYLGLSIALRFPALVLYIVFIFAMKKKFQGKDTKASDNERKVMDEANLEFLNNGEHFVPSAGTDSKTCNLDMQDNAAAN
Method: as §1

[3] = tested on: ABCB1; experiment: Induction assay in LS180 cells, ABCB1 mRNA (real-time RT-PCR); format: cell-based, human; conditions: LS180, 4 days; hydroxychloroquine 1, 2, 10, 20 µM; rifampicin 20 µM
Method: (§2) For induction experiments, the human colon adenocarcinoma cell line LS180 (available at ATCC, Manassas, VA, USA) was used. This cell line is an established model for investigating gene inductions mediated by PXR or AhR [25, 28]. Cells were cultured under standard cell culture conditions in DMEM supplemented with 10% FCS, 100 U/mL penicillin, 100 µg/mL streptomycin sulphate, 0.1 mM non-essential amino acids, and 2 mM glutamine.
(§3) All media were adjusted to the DMSO content of the solution with the highest DMSO content in the respective experiment (0.1%). The experiment was conducted in quintuplicate. RNA was extracted immediately after harvesting the cells and stored at −80 °C until processing.
(§4) RNA was isolated using the GenElute™ Mammalian Total RNA Miniprep Kit, and cDNA was synthesized with the RevertAid™ H Minus First Strand cDNA Synthesis Kit according to the manufacturer’s instructions. mRNA expression was quantified by real-time RT-PCR with the LightCycler® 480 (Roche Applied Science, Mannheim, Germany) as described previously. […] Data were evaluated via calibrator-normalised relative quantification with efficiency correction using the LightCycler® 480 software version 1.5.1.62 (Roche Applied Science, Mannheim, Germany). Results were expressed as the target/reference ratio divided by the target/reference ratio of the calibrator. […]

[4] = tested on: ABCG2; experiment: Induction assay in LS180 cells, ABCG2 mRNA (real-time RT-PCR); format: cell-based, human; conditions: LS180, 4 days; hydroxychloroquine 1, 2, 10, 20 µM; rifampicin 20 µM; omeprazole 150 µM
Method: as §2, §3
RNA was isolated using the GenElute™ Mammalian Total RNA Miniprep Kit, and cDNA was synthesized with the RevertAid™ H Minus First Strand cDNA Synthesis Kit according to the manufacturer’s instructions. mRNA expression was quantified by real-time RT-PCR with the LightCycler® 480 (Roche Applied Science, Mannheim, Germany) as described previously. […] Data were evaluated via calibrator-normalised relative quantification with efficiency correction using the LightCycler® 480 software version 1.5.1.62 (Roche Applied Science, Mannheim, Germany). Results were expressed as the target/reference ratio divided by the target/reference ratio of the calibrator. The results are therefore corrected for sample inhomogeneities and variance caused by detection. All samples were amplified in duplicate and the mean of the technical duplicate was used for further calculation.

[5] = molecular target: T3, OATP2B1 (Homo sapiens, UniProt O94956); experiment: Flow cytometric OATP2B1 inhibition assay (DBF uptake, HEK293 with tetracycline-induced OATP2B1); format: cell-based
T3 construct: expressed in transfected cells; host or cells: HEK293, tetracycline-induced OATP2B1 expression
T3 sequence (O94956 whole entry): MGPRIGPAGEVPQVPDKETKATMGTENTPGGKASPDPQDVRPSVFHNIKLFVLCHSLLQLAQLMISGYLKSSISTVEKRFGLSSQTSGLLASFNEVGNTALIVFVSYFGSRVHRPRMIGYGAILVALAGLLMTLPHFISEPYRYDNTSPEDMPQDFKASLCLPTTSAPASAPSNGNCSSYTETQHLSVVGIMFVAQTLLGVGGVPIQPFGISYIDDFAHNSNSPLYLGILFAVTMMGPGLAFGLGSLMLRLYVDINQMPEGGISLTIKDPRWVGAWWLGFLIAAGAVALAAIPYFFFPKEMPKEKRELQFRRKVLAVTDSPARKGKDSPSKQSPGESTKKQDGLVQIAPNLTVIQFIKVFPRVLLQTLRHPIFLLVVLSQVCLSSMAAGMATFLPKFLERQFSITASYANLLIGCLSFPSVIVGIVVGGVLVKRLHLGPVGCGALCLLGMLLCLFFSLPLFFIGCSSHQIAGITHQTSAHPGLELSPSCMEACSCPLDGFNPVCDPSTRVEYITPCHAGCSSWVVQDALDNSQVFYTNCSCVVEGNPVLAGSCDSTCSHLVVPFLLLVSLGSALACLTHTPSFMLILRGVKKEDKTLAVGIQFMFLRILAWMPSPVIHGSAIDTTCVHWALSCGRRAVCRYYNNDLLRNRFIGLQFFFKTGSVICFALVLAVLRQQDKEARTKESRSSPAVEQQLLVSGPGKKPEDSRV
Method: As a cell model for human OATP2B1, HEK293 cells over-expressing OATP2B1 in the presence of tetracycline were used. Cells were cultured under standard cell culture conditions with DMEM/Ham’s F12 medium supplemented with 10% FCS, 4 mM glutamine, 100 U/mL penicillin, and 100 µg/mL streptomycin sulphate. To generate OATP2B1 over-expression, cells were treated 72 h before the assay with 1 µg/mL tetracycline. […] Excluding debris, living cells were gated in the forward/sideward scatter by using the unstained sample. […] Uptake in cells with tetracycline induction was normalised to the uptake in cells without induction. Naringin (1 mM) was used as a positive control.

[6] = molecular target: T4, human P-gp (Homo sapiens, UniProt P08183); experiment: P-gp inhibition, calcein-AM uptake assay in L-MDR1 vs LLC-PK1 cells; format: cell-based; conditions: L-MDR1 cells and parental LLC-PK1; 0.01–100 µM; 0.5 µM calcein-AM
T4 construct: expressed in transfected cells; host or cells: L-MDR1 (derived from porcine LLC-PK1)
T4 sequence (P08183 whole entry): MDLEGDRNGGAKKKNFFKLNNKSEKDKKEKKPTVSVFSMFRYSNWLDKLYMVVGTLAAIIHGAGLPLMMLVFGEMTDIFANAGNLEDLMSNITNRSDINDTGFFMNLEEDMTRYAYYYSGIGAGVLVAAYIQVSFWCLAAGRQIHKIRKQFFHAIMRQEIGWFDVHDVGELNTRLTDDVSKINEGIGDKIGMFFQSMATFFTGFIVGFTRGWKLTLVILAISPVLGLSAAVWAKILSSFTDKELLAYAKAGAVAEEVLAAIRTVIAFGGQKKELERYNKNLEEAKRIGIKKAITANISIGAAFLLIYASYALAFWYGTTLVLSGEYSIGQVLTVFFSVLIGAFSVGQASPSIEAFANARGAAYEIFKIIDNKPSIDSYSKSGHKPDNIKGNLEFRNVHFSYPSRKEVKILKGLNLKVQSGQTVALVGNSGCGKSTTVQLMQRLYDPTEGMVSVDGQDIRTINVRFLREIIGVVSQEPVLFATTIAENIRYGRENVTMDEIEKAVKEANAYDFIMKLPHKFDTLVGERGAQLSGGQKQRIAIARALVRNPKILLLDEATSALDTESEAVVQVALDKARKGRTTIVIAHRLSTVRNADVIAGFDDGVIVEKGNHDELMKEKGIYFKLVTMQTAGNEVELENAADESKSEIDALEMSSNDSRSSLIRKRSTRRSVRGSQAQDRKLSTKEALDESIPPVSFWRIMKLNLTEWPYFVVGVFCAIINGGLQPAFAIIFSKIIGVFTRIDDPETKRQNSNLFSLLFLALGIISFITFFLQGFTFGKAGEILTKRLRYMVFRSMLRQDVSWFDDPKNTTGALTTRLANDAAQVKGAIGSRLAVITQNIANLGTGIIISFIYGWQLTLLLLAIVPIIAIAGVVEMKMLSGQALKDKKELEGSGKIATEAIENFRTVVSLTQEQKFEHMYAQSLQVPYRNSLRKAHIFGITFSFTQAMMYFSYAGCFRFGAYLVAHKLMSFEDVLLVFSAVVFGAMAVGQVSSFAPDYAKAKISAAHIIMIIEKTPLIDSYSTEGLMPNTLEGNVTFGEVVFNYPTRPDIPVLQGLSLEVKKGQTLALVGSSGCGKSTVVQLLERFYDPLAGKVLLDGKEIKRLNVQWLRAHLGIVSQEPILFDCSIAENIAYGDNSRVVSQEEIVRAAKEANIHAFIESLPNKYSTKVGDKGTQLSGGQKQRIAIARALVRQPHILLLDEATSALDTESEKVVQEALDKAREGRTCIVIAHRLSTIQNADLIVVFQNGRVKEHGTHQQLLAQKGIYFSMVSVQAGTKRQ
Method: (§5) P-gp inhibition was tested with a calcein assay as published previously using two different cell systems: the L-MDR1 cell line that over-expresses human P-gp and the corresponding parental cell line LLC-PK1 [19] and the P-gp over-expressing murine monocytic cell line P388/dx and its parental counterpart cell line P388 as a control. LLC-PK1 and L-MDR1 cells were cultured under standard cell culture conditions with medium M199 supplemented with 10% FCS, 2 mM glutamine, 100 U/mL penicillin, and 100 µg/mL streptomycin sulphate. […] One day before using the cells for the calcein assay, both cell lines were fed with vincristine-free culture medium. […] One day before the inhibition assay, both P388 cell lines were set to the doxorubicin-free culture medium.
(§6) In brief, the assay was performed in 96-well plates with a final calcein-AM concentration of 0.5 µM for the LLC cell system and 1 µM for the P388 cell system. Cells were washed with pre-warmed HBSS supplemented with 10 mM HEPES (HHBSS) and pre-incubated with this buffer for 30 min and subsequently with the test compound for 10 min (LLC cell system) or 15 min (P388 cell system). After pre-incubation, calcein-AM was added and the cells were incubated for 60 min (LLC system) or 30 min (P388 cell system) at 37 °C on a rotary shaker (Noctua, Vienna, Austria). […]

[7] = tested on: organic cation transporters (OCTs); conditions: cited from earlier work
[8] = tested on: P-gp (P388/dx cells); experiment: P-gp inhibition, calcein-AM uptake assay in P388/dx vs P388 cells; format: cell-based, murine; conditions: not in parental P388, 1 µM calcein-AM, IC50 could not be calculated
Method: as §5, §6

[9] = tested on: organic anion transporters (OATs); conditions: cited from earlier work
[10] = tested on: CYP1A2; experiment: Induction assay in LS180 cells, CYP1A2 mRNA (real-time RT-PCR); conditions: LS180, 4 days; hydroxychloroquine 1, 2, 10, 20 µM; omeprazole 150 µM
Method: as §2, §3, §4

[11] = tested on: MDCKII-BCRP cells (over-expressing human BCRP); experiment: Growth inhibition assay (crystal violet), BCRP over-expressing MDCKII-BCRP; format: cell-based; conditions: growth inhibition MDCKII-BCRP vs MDCKII with and without FTC
Method: (§7) Cell lines with overexpression of an efflux transporter are more resistant to the anti-proliferative effects of a compound if this compound is a substrate of the respective transporter and can be extruded from the cell. […] Reversal of drug resistance was tested by using the P-gp-specific inhibitor LY335979 (zosuquidar) or the BCRP-specific inhibitor FTC. The assay using crystal violet staining was conducted and analysed as described previously. Each experiment was performed at least in quadruplicate with n = 8 wells for each concentration (0.1–500 µM).

[12] = tested on: BCRP (substrate test by growth inhibition); experiment: as above; format: cell-based; conditions: dog, MDCKII-BCRP cells (MDCKII over-expressing human BCRP)
Method: as §7

[13] = tested on: P-gp (substrate test by growth inhibition); experiment: Growth inhibition assay (crystal violet), P-gp over-expressing L-MDR1; format: cell-based; conditions: pig, L-MDR1 cells (LLC-PK1 over-expressing human P-gp)
Method: as §7

[14] = tested on: L-MDR1 cells (over-expression of human P-gp); experiment: as above; format: cell-based; conditions: growth inhibition L-MDR1 vs LLC-PK1 with and without LY335979
Method: as §7

[15] = tested on: MDCKII cells; experiment: Growth inhibition assay (crystal violet), parental MDCKII; format: cell-based; conditions: Canis lupus familiaris, MDCK-II
Method: as §7

[16] = tested on: LS180 cells; experiment: Growth inhibition in LS180 cells (crystal violet); format: cell-based; conditions: Homo sapiens
Method: Proliferation was quantified by crystal violet staining and the assays were conducted as described previously. Each concentration was tested in octuplet and each experiment was performed in quadruplicate.

[17] = tested on: all cell lines used; experiment: Cytotoxicity Detection Kit (LDH release); format: cell-based; conditions: up to 100 µM
Description: The toxic effects of tested compounds can negatively influence transporter inhibition assays.

[18] = tested on: OATP2B1; conditions: at 10 µM; cited from earlier work
[19] = tested on: CYP3A4
Method: as §2, §3, §4

[20] = tested on: OATP1A2; conditions: uptake of all-trans-retinol in vitro; cited from earlier work
[21] = tested on: P-gp; set-up: method as in PMID 7113754; conditions: two case reports; cited from earlier work
[22] = tested on: OATP1B3; conditions: at 10 µM; cited from earlier work
[23] = cited from earlier work
[24] = tested on: organic cation/carnitine transporters (OCTNs); conditions: cited from earlier work
[25] = tested on: LLC-PK1 cells; experiment: Growth inhibition assay (crystal violet), parental LLC-PK1; format: cell-based; conditions: Sus scrofa
Method: as §7

[26] = tested on: CYP1A1; experiment: Induction assay in LS180 cells, CYP1A1 mRNA (real-time RT-PCR); format: cell-based, human; conditions: LS180, 4 days; hydroxychloroquine 1, 2, 10, 20 µM; omeprazole 150 µM
Method: as §2, §3, §4

[27] = 0.1–100 µM, 8-FcA uptake, 10 min

T1 sequence (Q9Y6L6 whole entry): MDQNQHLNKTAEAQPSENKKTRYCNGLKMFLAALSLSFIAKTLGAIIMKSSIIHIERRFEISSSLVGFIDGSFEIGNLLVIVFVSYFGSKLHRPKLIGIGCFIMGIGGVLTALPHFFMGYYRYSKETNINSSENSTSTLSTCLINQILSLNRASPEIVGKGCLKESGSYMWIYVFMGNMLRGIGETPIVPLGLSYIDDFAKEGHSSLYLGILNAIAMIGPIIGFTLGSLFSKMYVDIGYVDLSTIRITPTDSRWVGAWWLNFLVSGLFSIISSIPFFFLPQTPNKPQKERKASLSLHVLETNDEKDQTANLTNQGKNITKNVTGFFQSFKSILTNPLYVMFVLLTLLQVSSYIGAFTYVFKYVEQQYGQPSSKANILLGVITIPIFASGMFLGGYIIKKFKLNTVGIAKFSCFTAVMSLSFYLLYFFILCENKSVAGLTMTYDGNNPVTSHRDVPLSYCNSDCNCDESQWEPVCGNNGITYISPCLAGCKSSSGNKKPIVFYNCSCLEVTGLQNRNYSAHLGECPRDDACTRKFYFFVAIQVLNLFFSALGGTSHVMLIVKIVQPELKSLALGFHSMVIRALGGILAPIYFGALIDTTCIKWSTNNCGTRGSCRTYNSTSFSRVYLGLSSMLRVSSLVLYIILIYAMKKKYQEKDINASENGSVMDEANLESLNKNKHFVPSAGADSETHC

Structure (SMILES): CO[C@H]1/C=C/O[C@@]2(C)Oc3c(C)c(O)c4c(O)c(c(/C=N/N5CCN(C)CC5)c(O)c4c3C2=O)NC(=O)/C(C)=C\C=C\[C@H](C)[C@H](O)[C@@H](C)[C@@H](O)[C@@H](C)[C@H](OC(C)=O)[C@@H]1C [rifampicin]
inhibition at 10 min, 20 µM ([1]; human, HEK293 cells stably transfected with OATP1B1 (HEK-OATP1B1), probe 8-FcA, 20 µM, positive control): 80% | inhibition at 10 min, 20 µM ([2]; human, HEK293 cells stably transfected with OATP1B3 (HEK-OATP1B3), probe 8-FcA, 20 µM, positive control): 90% | ABCB1 mRNA expression [3]: significantly up-regulated | ABCG2 mRNA expression [4]: slightly

inhibition at 10 min, 1 mM ([5]; human, probe DBF (1 µM), 1 mM, positive control): 70%
Structure (SMILES): C[C@@H]1O[C@@H](O[C@H]2[C@H](Oc3cc(O)c4c(c3)O[C@H](c3ccc(O)cc3)CC4=O)O[C@H](CO)[C@@H](O)[C@@H]2O)[C@H](O)[C@H](O)[C@H]1O [naringin]

Structure (SMILES): CCN(CCO)CCCC(C)Nc1ccnc2cc(Cl)ccc12 (centres unmarked) [hydroxychloroquine]
OATP1B1 inhibition [1, 27]: did not inhibit | effect on intracellular calcein fluorescence (P-gp inhibition) [6]: did not affect intracellular calcein fluorescence | inhibition of organic cation transporters (OCTs) [7]: no inhibition | concentrations at which intracellular calcein fluorescence was increased (weak P-gp inhibition) [8]: higher than 10 µM | inhibition of organic anion transporters (OATs) [9]: weak inhibition | CYP1A2 mRNA expression [10]: no significant effect | OATP1B3 inhibition [2, 27]: did not inhibit | BCRP substrate characteristics [11]: not transported by BCRP | IC50 [12]: 88 ± 9 µM | IC50 ([12]; with FTC, concentration not given, MDCKII-BCRP + FTC): 92 ± 5 µM | IC50 [13]: 427 ± 16 µM | IC50 ([13]; with LY335979 (zosuquidar), concentration not given, L-MDR1 + LY335979 (P-gp inhibitor)): 90 ± 1 µM | P-gp substrate characteristics [14]: substrate of the efflux transporter P-gp | IC50 [15]: 89 ± 12 µM | IC20 [16]: 22.5 ± 7.3 µM | toxic effects (LDH release) [17]: no toxic effects | OATP2B1 inhibition [18]: about 20% | ABCB1 mRNA expression [3]: no significant effect | CYP3A4 mRNA expression [19]: no significant effect | OATP1A2 inhibition [20]: competitive inhibitor | ABCG2 mRNA expression [4]: no significant effect | effect on digoxin plasma concentrations during concurrent therapy [21]: increased plasma concentrations of digoxin | OATP1B3 inhibition [22]: about 20% | blood concentrations at steady-state ([23]; 400 mg/day): up to 9 µM | volume of distribution ([23]; in blood): 5522 L | volume of distribution ([23]; in plasma): 44,257 L | concentration within lysosomes at steady-state (postulated) ([23]; lysosomes): 80000 µM | average intracellular concentration at steady-state (postulated) ([23]; tissue/cells): 1 mM | inhibition of organic cation/carnitine transporters (OCTNs) [24]: no inhibition | IC50 ([25]; LLC-PK1, LLC-PK1): 82 ± 10 µM | IC50 ([25]; LLC-PK1, LLC-PK1 + LY335979 (P-gp inhibitor)): 93 ± 2 µM | CYP1A1 mRNA expression [26]: no significant effect | OATP2B1 inhibition ([5]; 0.1–100 µM, 1 µM DBF uptake, 10 min): did not inhibit

CYP1A2 mRNA expression [10]: significantly up-regulated | CYP1A1 mRNA expression [26]: significantly up-regulated
Structure (SMILES): COc1ccc2[nH]c([S+]([O-])Cc3ncc(C)c(OC)c3C)nc2c1 (centres unmarked) [omeprazole]
ABCG2 mRNA expression [4]: significantly up-regulated
